Data as given in patent US20200096496A1, “IODIDE DETECTION IN BLOOD PLASMA SAMPLES” (Faraday Pharmaceuticals, Inc., priority 2017, published 2020).

Test: Iodide concentration in plasma of treated human volunteers by ion chromatography with amperometric detection
Type: in vivo
Settings: plasma samples from human volunteers treated with various dosages of sodium iodide, protein precipitation with acetonitrile
Experimental: Plasma samples were obtained from Bioreclamation IVT in 10 mL aliquots of frozen plasma in lithium heparin. The plasma samples were normal plasma samples obtained from healthy male and female volunteers who were not treated with iodide. The plasma samples were prepared according to the following protocol. • 0.5 mL plasma was diluted 3:1 with pure acetonitrile for protein precipitation before analysis by Amperometric detection. (ex: 0.5 mL […] plus 1.5 mL pure Acetonitrile) • Samples were mixed gently and then centrifuged at max speed (14,000 rpm or 20,817 rcf) for 2 minutes. • Supernatant was carefully removed as to not disturb protein pellet, and transferred to a clean Eppendorf tube. • Supernatants were again centrifuged at max speed for 2 minutes. • Samples were spiked as necessary with NaI to fall between 2.5 and 200 ppb NaI concentrations. • 270 μL or 1 mL volumes of samples were analyzed by Amperometric detection on IC against a standard curve in a diluent matrix.
Plasma samples were obtained from human volunteers treated with various dosages of sodium iodide. The plasma samples were processed and sodium iodide concentrations determined essentially as described in Example 3.

[I-].[Na+] [sodium iodide]
determined serum concentrations of sodium iodide: positively correlated with dosages administered
